Reference: the NIST ThermoML archive (doi:10.1021/acs.jced.9b00415)
Numbers after ± are expanded uncertainties.

Experiment: xn = mol fraction of the nth substance listed
Settings: 102 kPa, Liquid; for viscosity: Concentric cylinders viscometry; for mass density: Vibrating tube method

CCCCn1cc[n+](C)c1.CS(=O)(=O)[O-] [1-butyl-3-methylimidazolium methanesulfonate] + CCCCn1cc[n+](C)c1.O=[N+]([O-])[O-]
Settings | mass density [kg/m3] | viscosity [mPa·s]
303.15 K, x2 = 0.9 | 1154.3 ± 2.8 | 180.1 ± 18
308.15 K, x2 = 0.9 | 1151.1 ± 2.8 | 135.4 ± 14
313.15 K, x2 = 0.8 | 1149.3 ± 2.7 | 113.6 ± 12
313.15 K, x2 = 0.9 | 1147.9 ± 2.8 | 104 ± 10
318.15 K, x2 = 0.6 | 1150.5 ± 2.7 | 103 ± 10
318.15 K, x2 = 0.7 | 1148.5 ± 2.7 | 97.85 ± 9.9
318.15 K, x2 = 0.8 | 1146.2 ± 2.7 | 88.38 ± 8.9
318.15 K, x2 = 0.9 | 1144.7 ± 2.8 | 81.49 ± 8.2
323.15 K, x2 = 0.6 | 1147.3 ± 2.7 | 80.7 ± 8.1
323.15 K, x2 = 0.7 | 1145.4 ± 2.7 | 77.05 ± 7.8
323.15 K, x2 = 0.8 | 1143 ± 2.7 | 70.03 ± 7.1
323.15 K, x2 = 0.9 | 1141.6 ± 2.8 | 64.96 ± 6.6
328.15 K, x2 = 0.4 | 1146.9 ± 2.6 | 70.76 ± 7.1
328.15 K, x2 = 0.5 | 1145.4 ± 2.6 | 66.57 ± 6.7
328.15 K, x2 = 0.6 | 1144.1 ± 2.7 | 64.37 ± 6.5
328.15 K, x2 = 0.7 | 1142.2 ± 2.7 | 61.72 ± 6.2
328.15 K, x2 = 0.8 | 1139.9 ± 2.7 | 56.42 ± 5.7
328.15 K, x2 = 0.9 | 1138.5 ± 2.7 | 52.61 ± 5.3
333.15 K, x2 = 0.3 | 1144.9 ± 2.6 | 59.13 ± 6
333.15 K, x2 = 0.4 | 1143.8 ± 2.6 | 56.85 ± 5.7
333.15 K, x2 = 0.5 | 1142.2 ± 2.6 | 53.7 ± 5.4
333.15 K, x2 = 0.6 | 1141 ± 2.7 | 52.18 ± 5.3
333.15 K, x2 = 0.7 | 1139.1 ± 2.7 | 50.22 ± 5.1
333.15 K, x2 = 0.8 | 1136.8 ± 2.7 | 46.14 ± 4.7
333.15 K, x2 = 0.9 | 1135.4 ± 2.7 | 43.23 ± 4.4
338.15 K, x2 = 0.3 | 1141.8 ± 2.6 | 48.04 ± 4.8
338.15 K, x2 = 0.4 | 1140.6 ± 2.6 | 46.37 ± 4.7
338.15 K, x2 = 0.5 | 1139.1 ± 2.6 | 43.99 ± 4.4
338.15 K, x2 = 0.6 | 1137.9 ± 2.6 | 42.9 ± 4.3
338.15 K, x2 = 0.7 | 1136 ± 2.7 | 41.44 ± 4.2
338.15 K, x2 = 0.8 | 1133.7 ± 2.7 | 38.25 ± 3.9
338.15 K, x2 = 0.9 | 1132.3 ± 2.7 | 35.99 ± 3.6
343.15 K, x2 = 0.3 | 1138.6 ± 2.6 | 39.58 ± 4
343.15 K, x2 = 0.4 | 1137.5 ± 2.6 | 38.34 ± 3.9
343.15 K, x2 = 0.5 | 1136 ± 2.6 | 36.52 ± 3.7
343.15 K, x2 = 0.6 | 1134.8 ± 2.6 | 35.74 ± 3.6
343.15 K, x2 = 0.7 | 1132.9 ± 2.7 | 34.63 ± 3.5
343.15 K, x2 = 0.8 | 1130.6 ± 2.7 | 32.11 ± 3.2
343.15 K, x2 = 0.9 | 1129.3 ± 2.7 | 30.32 ± 3.1
348.15 K, x2 = 0.1 | 1138.3 ± 2.5 | 34.98 ± 3.5
348.15 K, x2 = 0.2 | 1136.8 ± 2.5 | 34.5 ± 3.5
348.15 K, x2 = 0.3 | 1135.5 ± 2.6 | 33.03 ± 3.3
348.15 K, x2 = 0.4 | 1134.4 ± 2.6 | 32.1 ± 3.2
348.15 K, x2 = 0.5 | 1132.9 ± 2.6 | 30.69 ± 3.1
348.15 K, x2 = 0.6 | 1131.7 ± 2.6 | 30.13 ± 3
348.15 K, x2 = 0.7 | 1129.9 ± 2.7 | 29.28 ± 2.9
348.15 K, x2 = 0.8 | 1127.6 ± 2.7 | 27.25 ± 2.8
348.15 K, x2 = 0.9 | 1126.2 ± 2.7 | 25.81 ± 2.6
353.15 K, x2 = 0.1 | 1135.2 ± 2.5 | 29.38 ± 3
353.15 K, x2 = 0.2 | 1133.6 ± 2.5 | 29.04 ± 2.9
353.15 K, x2 = 0.3 | 1132.4 ± 2.6 | 27.88 ± 2.8
353.15 K, x2 = 0.4 | 1131.3 ± 2.6 | 27.17 ± 2.7
353.15 K, x2 = 0.5 | 1129.8 ± 2.6 | 26.08 ± 2.6
353.15 K, x2 = 0.6 | 1128.6 ± 2.6 | 25.68 ± 2.6
353.15 K, x2 = 0.7 | 1126.8 ± 2.6 | 25.02 ± 2.5
353.15 K, x2 = 0.8 | 1124.5 ± 2.7 | 23.36 ± 2.4
353.15 K, x2 = 0.9 | 1123.2 ± 2.7 | 22.2 ± 2.2
358.15 K, x2 = 0.1 | 1132 ± 2.5 | 24.94 ± 2.5
358.15 K, x2 = 0.2 | 1130.5 ± 2.5 | 24.71 ± 2.5
358.15 K, x2 = 0.3 | 1129.3 ± 2.5 | 23.79 ± 2.4
358.15 K, x2 = 0.4 | 1128.2 ± 2.6 | 23.23 ± 2.3
358.15 K, x2 = 0.5 | 1126.8 ± 2.6 | 22.38 ± 2.2
358.15 K, x2 = 0.6 | 1125.6 ± 2.6 | 22.09 ± 2.2
358.15 K, x2 = 0.7 | 1123.8 ± 2.6 | 21.57 ± 2.2
358.15 K, x2 = 0.8 | 1121.5 ± 2.7 | 20.21 ± 2
358.15 K, x2 = 0.9 | 1120.2 ± 2.7 | 19.26 ± 1.9
363.15 K, x2 = 0.1 | 1128.9 ± 2.5 | 21.39 ± 2.1
363.15 K, x2 = 0.2 | 1127.4 ± 2.5 | 21.27 ± 2.1
363.15 K, x2 = 0.3 | 1126.2 ± 2.5 | 20.51 ± 2.1
363.15 K, x2 = 0.4 | 1125.1 ± 2.6 | 20.04 ± 2
363.15 K, x2 = 0.5 | 1123.7 ± 2.6 | 19.36 ± 1.9
363.15 K, x2 = 0.6 | 1122.5 ± 2.6 | 19.18 ± 1.9
363.15 K, x2 = 0.7 | 1120.7 ± 2.6 | 18.76 ± 1.9
363.15 K, x2 = 0.8 | 1118.5 ± 2.6 | 17.63 ± 1.8
363.15 K, x2 = 0.9 | 1117.2 ± 2.7 | 16.86 ± 1.7
